# Patent US20210379070A1, “MALONATE SALT OF VARLITINIB” (Aslan Pharmaceuticals PTE LTD, priority 2018, published 2021)
# Entries after “also recorded” stand apart in the source; their conditions may differ.
# Assays:
# Format in all cases: physicochemical
# [1] = Aqueous solubility (slurry in deionised water, 4 and 24 hours, room temperature, HPLC; solids by XRPD); details: for Solid form by XRPD after aqueous solubility slurry: 4 and 24 hours; for Aqueous solubility: room temperature
# Procedure: Slurries of each potential salt were created in deionised water and agitated for 4 and 24 hours at room temperature. After both 4 and 24 hours, the resulting solutions were analysed by HPLC and the concentration of material dissolved calculated. Remaining solids were analysed by XRPD to determine if any changes had occurred on slurrying.
# [2] = Hydration studies (slurry in acetone:water 3, 5 and 10% water, ca. 48 hours, XRPD)
# Procedure: Slurries of each potential salt were created in acetone:water mixtures (3, 5 and 10% water) and shaken for ca. 48 hours. The resulting solid was then analysed by XRPD to determine if any changes had occurred on slurrying.
# [3] = Thermodynamic solubility (slurry in media of pH 1, 4.5 and 6.8, ca. 48 hours, HPLC; solids by XRPD); details: for Solid form by XRPD after thermodynamic solubility slurry: pH 1, 4.5, 6.8 media
# Procedure: Slurries of each potential salt were created in media of pH 1; 4.5 and 6.8 and shaken for ca. 48 hours. The resulting solution was then analysed by HPLC and the concentration of material dissolved calculated. Remaining solids were analysed by XRPD to determine if any changes had occurred on slurrying.
# [4] = Thermal analysis (TG/DTA, DSC): onset of degradation; details: TG/DTA (TGA)
# Procedure: Thermogravimetric Analysis (TGA)
# Approximately, 5 mg of material was accurately weighed into an open aluminium pan and loaded into a simultaneous thermogravimetric/differential thermal analyser (TG/DTA) and held at room temperature. The sample was then heated at a rate of 10° C./min from 25° C. to […] the change in sample weight was recorded along with any differential thermal events (DTA). Nitrogen was used as the purge gas, at a flow rate of 100 cm^3/min.
# Differential Scanning calorimetry (DSC)
# Approximately, 5 mg of material was weighed into an aluminium DSC pan and sealed non-hermetically with a pierced aluminium lid. The sample pan was then loaded into a Seiko DSC6200 (equipped with a cooler). The sample and reference were heated to ca. 220° C. at a scan rate of 10° C./min and the resulting heat flow response monitored.
# [5] = Salt disproportionation studies (slurry in water, XRPD at 1, 24 & 48 hours); details: room temperature, 1, 24 & 48 hours
# Procedure: Salt Disproportionation Studies
# Each potential salt was slurried in water at room temperature (ca. 22° C.), with the excess solid taken at 1, 24 & 48 hours and analysed by XRPD. The pH of the supernatant was also monitored.
# [6] = Stability (storage) testing, 1 week, XRPD; details: for Storage testing (solid form by XRPD): ambient light, 40° C./75% RH and 80° C., 1 week
# Procedure: Each potential salt was exposed to environments of 40° C./75% RH, elevated temperature (80° C.) and ambient light (ca. 22° C. in a closed vial), for 1 week to determine stability. Resulting solids were analysed by XRPD to establish if any changes had occurred.
# [7] = Dynamic Vapour Sorption (DVS); details: for Solid form by XRPD post DVS: after exposure to varying % RH; for DVS water uptake: between 20-70% RH
# Procedure: Dynamic Vapour Sorption (DVS)
# Approximately 10 mg of sample was placed into a mesh vapour sorption balance pan and loaded into a DVS-1 dynamic vapour sorption balance by Surface Measurement Systems. The sample was subjected to a ramping profile from 20-90% relative humidity (RH) at 10% increments maintaining the sample at each step until a stable weight had been achieved (99.5% step completion). After completion of the sorption cycle, the sample was dried using the same procedure, but all the way down to 0% RH and finally taken back to the starting point of 20% RH. The weight change during the sorption/desorption cycles were plotted, allowing for the hygroscopic nature of the sample to be determined.
Aqueous solubility ([1]; 4 hours) [µg/mL],Aqueous solubility ([1]; 24 hours) [µg/mL],"Thermodynamic solubility ([3]; pH1, ca. 48 hours) [µg/mL]","Thermodynamic solubility ([3]; pH 4.5, ca. 48 hours) [µg/mL]","Thermodynamic solubility ([3]; pH 6.8, ca. 48 hours) [µg/mL]",Onset of degradation [4],Storage testing (solid form by XRPD) [6],DVS water uptake [7] [%],DVS water uptake overall [7] [%],Hygroscopicity ([7]; DVS),SMILES,Solid form by XRPD after aqueous solubility slurry [1],Hydration study (solid form after slurrying) [2],Solid form by XRPD after thermodynamic solubility slurry [3],Salt disproportionation on slurrying in water [5],Solid form by XRPD post DVS [7],Overall stability in the secondary screen tests ([6]; conclusion over all tests employed)
257,408.9,1213.8,3.6,< 0.445,ca. 150 °C,remain unchanged,1.95,2.84,–,C[C@@H]1COC(Nc2ccc3ncnc(Nc4ccc(OCc5nccs5)c(Cl)c4)c3c2)=N1.O=C(O)/C=C\C(=O)O [maleate salt],"remained unchanged after slurrying, with a potential increase in amorphous content","remained unchanged after slurrying, indicating a low hydration risk",A change in solid form was observed by XRPD from pH1 and pH4.5,no change in form of the maleate salt on slurrying in water at 1 hr and 24 hrs. After 48 hrs the material was observed to be predominantly amorphous,remain unchanged,–
494.7,603.6,768.7,2.8,2,–,remained unchanged,0.14,0.35,non-hygroscopic,C[C@@H]1COC(Nc2ccc3ncnc(Nc4ccc(OCc5nccs5)c(Cl)c4)c3c2)=N1.O=C(O)CC(=O)O [malonate salt],remain unchanged after slurrying,"remain unchanged after slurrying, indicating a low hydration risk; also recorded: No disproportionation or hydration observed",A change in solid form was observed by XRPD from pH1 and pH4.5,no form change of the malonate salt on slurrying in water; also recorded: No disproportionation or hydration observed,No change to the solid form; also recorded: no change in PXRD post DVS,good stability throughout the tests employed
–,–,–,–,–,ca. 230 °C,–,–,–,–,"C[C@@H]1COC(Nc2ccc3ncnc(Nc4ccc(OCc5nccs5)c(Cl)c4)c3c2)=N1 [varlitinib, (R)—N4-[3-Chloro-4-(thiazol-2-ylmethoxy)-phenyl]-N6-(4-methyl-4,5,-dihydro-oxazol-2-yl)-quinazoline-4,6-diamine]",–,–,–,–,–,–
